# Assays:
# [1] = tested on: psoriasis caused by imiquimod; assay: Epithelial thickness of back skin by H&E staining in imiquimod-induced psoriasis mice; type: in vivo, Balb/c mice; details: after treatment for a week, skin application, compared to the IMQ group
# Description: (§1) 6-week-old male Balb/c mice (Kangwon Life Science, Korea) were purchased and acclimated for a week, and psoriasis was induced using 5% imiquimod (Donga ST, Korea). FIG. 1 is a schematic experimental scheme of an animal model. Anti-psoriatic efficacy was investigated using a total of 20 animal models including 5 animals per experimental group.
# (§2) In order to determine the effect of the extract of Dianthus superbus L. on psoriasis caused by imiquimod, the experimental animals of Section 2-1 were used. The following four experimental groups were constructed and five animals were randomly assigned to each group:
# (§3) The experiment was conducted by inducing psoriasis with IMQ cream and then performing daily application in the amount shown in FIG. 2 to the experimental group and the DEX group. FIG. 3 is an image showing the treatment group for 7 days compared to the psoriasis-induced model as the animal experimental model.
# After treatment for a week, the back skin tissue was removed from each animal, and then a paraffin block was prepared. The paraffin block was cut to 5 μm to prepare a slide sample, and then the change in the thickness of the skin tissue was measured through H&E staining.
# [2] = tested on: filaggrin, loricrin, keratin 1 and keratin 14; assay: Biomarkers for epithelial tissue damage in back skin by immunofluorescence in imiquimod-induced psoriasis mice; type: in vivo, Balb/c mice; details: after treatment for a week, versus IMQ group
# Description: as §1, §2, §3
# After treatment for a week, back skin tissue was removed from each animal and a paraffin block was then prepared. A paraffin block was cut to 5 μm to prepare a slide sample, and then the change in biomarkers for epithelial tissue damage due to psoriasis was measured through immunofluorescence.
compound,measurement,setting,value
"C[C@@H]1C[C@H]2[C@@H]3CCC4=CC(=O)C=C[C@]4(C)[C@@]3(F)[C@@H](O)C[C@]2(C)[C@@]1(O)C(=O)CO [DEX, dexamethasone]",thickness of the epithelial layer,[1],decreased thickness
same,expression level of filaggrin,[2],increased
same,expression level of keratin 1,[2],increased
same,expression level of keratin 14,[2],increased
same,expression level of loricrin,[2],increased
